Test results from US8541379B2 (Ajinomoto Co., Inc., priority 2009, dated 2013).
Marks after values point to notes of the source that are not given here.

Tests used:
[1] = Paired comparison sensory test, basil (Labiatae) herb/spice solution; format: in vivo, human; details: 0.5% basil solution, N=9
Protocol: More specifically, the sensory evaluation test was carried out according to the following procedures: Commercially available typical herb/spice in powdery form was dispersed in water in a concentration of 0.5% by mass to thus form a herb/spice solution. This solution was admixed with γ-Glu-Nva, γ-Glu-Cys-Gly, or γ-Glu-Abu as a test compound. According to the paired comparison test, the panelists were requested to comparatively evaluate the following three samples and to judge whether “any of them was preferred since it could enhance the flavor and taste of the herb/spice solution without changing the balance between them”: (1) 0.02% by mass of γ-Glu-Cys-Gly whose kokumi-imparting activity was identical to 0.00015% by mass of γ-Glu-Nva; (2) 0.00015% by mass of γ-Glu-Abu, the amount of which was identical to 0.00015% by mass of γ-Glu-Nva; (3) 0.003% by mass of γ-Glu-Abu whose kokumi-imparting activity was identical to that observed for 0.00015% by mass of γ-Glu-Nva. The panelists used in this test were persons who had been engaged in the development of seasonings for foods over not less than one year of the cumulative time period and who could judge that the difference in the titer between γ-Glu-Cys-Gly and γ-Glu-Val-Gly added to a solution having umami/salty taste is about 10 times (while confirming the ability of these persons at regular intervals). The evaluation was carried out at N (the number of panelists used)=9.

[2] = molecular target: T1, human CaSR (Homo sapiens, UniProt P41180, E1011Q); test: Evaluation of CaSR agonist activity (Ca2+ fluorescence, hCaSR-transfected 293E cells); format: cell-based
T1 construct: expressed in transfected cells; host or cells: 293E cells (EBNA1-expressing HEK293, ATCC CRL-10852), transient transfection with Fugene6
T1 sequence (P41180 20-1078 E1011Q): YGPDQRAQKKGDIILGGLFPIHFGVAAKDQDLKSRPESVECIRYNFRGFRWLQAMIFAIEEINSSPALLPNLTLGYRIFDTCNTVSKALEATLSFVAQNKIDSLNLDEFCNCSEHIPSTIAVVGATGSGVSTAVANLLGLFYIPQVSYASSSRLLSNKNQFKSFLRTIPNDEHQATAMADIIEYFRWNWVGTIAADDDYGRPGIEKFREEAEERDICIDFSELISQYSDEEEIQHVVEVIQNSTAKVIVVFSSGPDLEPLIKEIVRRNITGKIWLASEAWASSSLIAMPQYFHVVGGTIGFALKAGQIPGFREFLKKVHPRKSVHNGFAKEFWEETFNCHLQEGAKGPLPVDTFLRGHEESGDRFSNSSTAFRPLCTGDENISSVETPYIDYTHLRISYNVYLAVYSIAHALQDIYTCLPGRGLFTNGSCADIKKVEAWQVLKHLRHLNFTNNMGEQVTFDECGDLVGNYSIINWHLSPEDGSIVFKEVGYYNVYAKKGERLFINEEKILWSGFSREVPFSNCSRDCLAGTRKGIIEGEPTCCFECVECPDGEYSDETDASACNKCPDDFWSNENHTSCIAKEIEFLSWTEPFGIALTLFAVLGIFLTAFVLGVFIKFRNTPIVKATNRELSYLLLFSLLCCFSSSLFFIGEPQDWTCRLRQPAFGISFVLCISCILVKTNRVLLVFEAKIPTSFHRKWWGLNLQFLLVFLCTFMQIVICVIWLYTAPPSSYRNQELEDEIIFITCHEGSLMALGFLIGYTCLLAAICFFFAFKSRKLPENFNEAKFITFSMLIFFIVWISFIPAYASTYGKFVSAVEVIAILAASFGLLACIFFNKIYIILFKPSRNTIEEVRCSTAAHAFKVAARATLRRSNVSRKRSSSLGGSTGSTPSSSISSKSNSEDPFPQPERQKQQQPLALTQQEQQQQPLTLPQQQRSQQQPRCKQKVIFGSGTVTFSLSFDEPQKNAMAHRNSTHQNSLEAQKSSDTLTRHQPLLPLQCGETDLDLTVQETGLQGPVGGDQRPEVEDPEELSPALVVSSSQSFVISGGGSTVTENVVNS
Protocol: 293E Cells (EBNA1-expresion HEK293 cells, ATCC No. CRL-10852) were cultivated in DMEN/Ham's-F12 (3.15/mL glucose-containing Dulbecco's modified Eagle medium, available from Nakaraitesk Company) supplemented with 10% fetal calf serum, in the presence of 200 μg/mL of G418 (available from Genetisin). The cultured cells were inoculated in F25 flask at a density of 3×10^6 cells/10 mL, the flask was allowed to stand over 24 hours in a CO2 incubator (5% CO2, 37° C.), and then the human CaSR-expression plasmid hCaSR/pcDNA3.1 was transformed or transfected with a reagent for transfection Fugene6 (available from Roche Company). The transfected plasmid was maintained in a CO2 incubator for 6 to 7 hours, then the cells were recovered using a 10% fetal calf serum-containing DMEM/Ham's-F12 and the cells were inoculated in each well of a poly-D-lysine coat 96-well plate (BD-Biocoat) at a density of 70,000 cells/well.
To each well of the 96-well plate, each test compound was dissolved in a 0.1% BSA-containing Assay Buffer in an amount of 50 μl/well, and then any change of the intensity of fluorescence was monitored over 3 minutes using FLEX Station (available from Molecular Devices Company).
Method for the Determination of EC50:
The difference (RFU (Max-Min)) between the maximum and minimum fluorescent intensities observed for each well before and after the addition of each specific test compound was determined by the automatic calculation using FLEX Station. The activity rate was calculated while the RFU (Max-Min) value observed when adding the compound at the maximum concentration was defined to be 100% and the RFU (Max-Min) value observed when using the 0.1% BSA-containing Assay Buffer free of any test compound was defined to be 0%, followed by subjecting the resulting data to the curve-fitting procedures using the spreadsheet software Xfit or Graph-Pad-Prism to thus determine the EC50 which was the concentration of the compound at the activity rate of 50%.
In addition, the same EC50-determining procedures used above were repeated except for using other dipeptides as Comparative Examples.

EC50 ([2]; 293E cells transfected with hCaSR/pcDNA3.1, Calcium 4 fluorescence, FLEX Station): 120 nM
Structure (SMILES): CCC[C@H](NC(=O)CC[C@H](N)C(=O)O)C(=O)O [γ-Glu-Nva, γ-L-glutamyl-L-norvaline]
No. of Panelists who judged γ-Glu-Nva rather preferred ([1]; 0.00015 wt % γ-Glu-Nva vs 0.00015 wt % γ-Glu-Abu, significant level of 1%): 9/9**
No. of Panelists who judged γ-Glu-Nva rather preferred ([1]; 0.00015 wt % γ-Glu-Nva vs 0.003 wt % γ-Glu-Abu, significant level of 5%): 8/9***
No. of Panelists who judged γ-Glu-Nva rather preferred ([1]; 0.00015 wt % γ-Glu-Nva vs 0.02 wt % γ-Glu-Cys-Gly, significant level of 1%): 9/9**
CaSR agonist activity ([2]; compared with other dipeptides): strong CaSR agonist activity comparable to that observed for γ-Glu-Cys
